One experiment deals with T1, 5-HT1A receptor (Rattus norvegicus, UniProt P19327).
T1 construct: Freezed hippocampus dissected out from rats were homogenized; from tissue; host or cells: rat hippocampus, crude synaptosomal membranes
T1 sequence (P19327 1-422): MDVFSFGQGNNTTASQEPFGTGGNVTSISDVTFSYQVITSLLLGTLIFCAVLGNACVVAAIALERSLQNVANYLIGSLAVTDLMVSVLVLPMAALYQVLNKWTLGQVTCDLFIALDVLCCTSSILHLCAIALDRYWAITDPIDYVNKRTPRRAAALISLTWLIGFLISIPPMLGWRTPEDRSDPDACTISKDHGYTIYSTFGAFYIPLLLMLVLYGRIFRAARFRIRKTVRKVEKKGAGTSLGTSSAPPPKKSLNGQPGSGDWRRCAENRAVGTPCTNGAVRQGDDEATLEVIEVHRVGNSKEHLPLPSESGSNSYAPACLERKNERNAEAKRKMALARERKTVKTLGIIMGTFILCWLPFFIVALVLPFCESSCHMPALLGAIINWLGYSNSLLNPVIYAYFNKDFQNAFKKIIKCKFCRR
In words: Affinity for serotonin 1A (5-HT1A) receptor, 3H-8-OH-DPAT binding test. How it is done: Affinity for serotonin 1A (5-HT1A) receptor [^3 H-8-Hydroxy-2-dipropylaminotetralin (^3 H-8-OH-DPAT)binding test]
Preparation of crude synaptosome fraction and binding assay were conducted in accordance with the method reported in Journal of Neurochemistry, vol 44, page 1685, 1985 by Hall et al. Freezed hippocampus dissected out from rats were homogenized in 40 volumes of ice cold 50 mM Tris-HCl buffer (pH. 7.4) and the suspension was centrifuged at 500× g for 10 minutes at 0° C.
The supernatant was centrifuged at 40,000× g for 20 minutes at 0° C. and the resulting pellet was homogenized in 40 volumes of the above buffer and incubated at 37° C. for 10 minutes. After completion of reaction, the suspension was centrifuged at 40,000× g for 20 minutes at 0° C. The resulting pellet was washed twice by resuspension in 40 volumes of the above buffer and centrifugation, and finally suspended in 60 volumes of ice-cold 50 mM Tris-HCI buffer (pH 7.4) containing 1 mM manganese chloride for use in the next assay.
To the aliquots ([…]) of synaptosome membranes solution were added 50 ml of tritiated 8-OH-DPAT solution at the terminal concentration of 0.2 nM and 50 ml of test compound solution or 50 ml of its medium, and incubated at 37° C. for 10 minutes. Then to the mixture was added 5 ml of ice-cold 50 mM Tris-HCI buffer (pH 7.4) rapidly vacuum-filtered through Whatman^R GF/B filters and washed twice with 5 ml of the same buffer. The radioactivity of the residue remaining on the filters was measured by liquid scintillation counter. Nonspecific binding was determined under the presence of 10^-5 M serotonin (5-HT). 50% Inhibition concentration (IC50) of the test compound was graphically determined.

A further experiment deals with T2, 5-HT2 receptor (Rattus norvegicus, UniProt P14842).
T2 construct: Freezed cerebral cortex dissected out from rats were homogenized; from tissue; host or cells: rat cerebral cortex, crude synaptosomal membranes
In words: Affinity for serotonin 2 (5-HT2) receptor, 3H-Ketanserin binding test. The procedure:
Affinity for serotonin 2(5-HT2)receptor (^3 H-Ketanserin binding test).
The supernatant was centrifuged at 40,000× g for 20 minutes at 0° C. and the resulting pellets was homogenized in 30 volumes of ice-cold 50 mM Tris-HCI buffer (pH.7.7) and incubated at 37° C. for 10 minutes. The suspension was centrifuged at 40,000× g for 20 minutes at 0° C. again. The resulting pellet was homogenized in 100 volumes of the above buffer and provided as synaptosome membranes solution for the next assay.
To the aliquots (900 m) of synaptosome membranes solution were added 50 ml solution of ^3 H-Ketanserin solution at the terminal concentration of […] and 50 ml of test compound or its medium, and incubated at 37° C. for 20 minutes. After completion of the reaction, the mixture was rapidly vacuum-filtered through Whatman^R GF/B filters. The filters were washed three times with 5 ml of the above buffer, and then the radioactivity of the residue remaining on the filters was measured by liquid scintillation counter. Non specific binding was determined under the presence of […] of mianserin.

A further experiment has as its target T3, D2 receptor (Rattus norvegicus, UniProt P61169).
T3 construct: Freezed corpus striatum dissected out from rats were homogenized; from tissue; host or cells: rat corpus striatum, crude synaptosomal membranes
Description: Affinity for dopamine 2 (D2) receptor, 3H-Spiperone binding test. To be noted: rat corpus striatum, 3H-Spiperone 0.2 nM, 37° C. 20 minutes; read-out: D2 affinity expressed as IC50. The procedure:
Affinity for dopamine 2 (D2)receptor (^3 H-Spiperone binding test.)
Preparation of crude synaptosome fraction and binding assays were conducted in accordance with the method reported in European Journal of Pharmacology, vol 46, page 377,1977 by I.Creese et al. Freezed corpus striatum dissected out from rats were homogenized in 100 volumes of ice cold 50 mM Tris-HCl buffer (pH.7.7) and the suspension was centrifuged at 500× g for 10 minutes at 0° C.
The supernatant was centrifuged at 50,000× g for 15 minutes at 0° C. and the resulting pellet was homogenized in 100 volumes of the above buffer and then the suspension was centrifuged at 50,000× g for 15 minutes at 0° C. again. The resulting pellet was homogenized in 150 volumes of 50 mM Tris-HCl buffer (PH 7.1) containing 120 mM potassium chloride, 2 mM calcium chloride, 1 mM magnesium chloride, 0,1 ascorbic acid and […] pargyline. The suspension was incubated at 37° C. for 10 minutes and then provided as synaptosome membranes solution for the next assays. To the aliquots (900 m) of synaptosome membranes solution were added 50 ml of H-Spiperone solution at the terminal concentration of 0.2 nM and 50 ml of test compound solution or 50 ml of its medium, and incubated at 37° C. for 20 minutes. After completion of the reaction, the mixture was rapidly vacuum-filtered through Whatman^R GF/B filters. The filters were washed three times with 5 ml of the above buffer, and then the radioactivity of the residue remaining on the filters was measured by liquid scintillation counter. Nonspecific binding was determined under presence of […] of L)-Sulpiride 50% Inhibition concentration (IC50) of the test compound was graphically determined.

In the next experiment the test system is PKC. In words: PKC translocation in hippocampal synaptosomes (Western blot). The class given is cell-based. As to conditions: 15 min at 30° C., control = 100, dose not given. How it is done:
PKC translocation in different brain's area
Purified synaptosomes have been obtained following the procedure described by Dunkley (Dunkley P. R., Health J. W:, Harrison S. M., Jarvie P. E., Glenfield P. J. and Rostas J. A. P.
A rapid percolation gradient procedure for isolation of synaptosomes directly from Si fraction: homogeneity and morphology of subcellular fractions. Brain res 441:59-71, 1988).
Synaptosomes purified from cortex, hippocampus were incubated (10 mg/ml) for 15 min at 30° C. in presence of increasing doses of the compounds of the present invention dissolved in tartaric acid (pH 7.0) or of the vehicle alone.
After incubation, purified synaptosomes were collected in cold Krebs buffer containing 10 mM EGTA and then processed according to Shearmann et al (Shearman M. S., Shinomura T., Oda T. and Nishizuka Y. Protein kinase C subspecies in adult rat hippocampal synaptosomes. Activation by diacylglycerol and arachidonic acid. FEBS Lett 279:261-264, 1991).
Synaptosomes have been lysed in this solution for 30 min at 4° C. with stirring. […]
PKC on Western blots was detected with a polyclonal total PKC antibody (Upstate Biotechnology). […] Antigen antibody complexes were detected by enhanced chemiluminescence. Results have been analysed by computer assisted Image analysis and expressed as per cent of PKC translocation in control conditions.
A general note: A western blot detects proteins with antibodies after separation by electrophoresis.

For a further experiment, the target named is D1 receptor. In words: Affinity for D1 receptor (method not described). The class given is binding. To be noted: read-out: D1 affinity expressed as IC50.
Where [1] appears, read: rat hippocampus, 3H-8-OH-DPAT 0.2 nM, 37° C. 10 minutes, read-out: 5-HT1A affinity expressed as IC50.

The results in this text go back to patent US6087371A, “Heterocyclyl-ergoline derivatives as 5-HT1A receptor ligands” (Pharmacia & Upjohn S.p.A., priority 1996, dated 2000).

In general, IC50 refers to the concentration that gives 50% inhibition.

Where two headings read alike, the source gives them in different places.

T2 sequence (P14842 whole entry): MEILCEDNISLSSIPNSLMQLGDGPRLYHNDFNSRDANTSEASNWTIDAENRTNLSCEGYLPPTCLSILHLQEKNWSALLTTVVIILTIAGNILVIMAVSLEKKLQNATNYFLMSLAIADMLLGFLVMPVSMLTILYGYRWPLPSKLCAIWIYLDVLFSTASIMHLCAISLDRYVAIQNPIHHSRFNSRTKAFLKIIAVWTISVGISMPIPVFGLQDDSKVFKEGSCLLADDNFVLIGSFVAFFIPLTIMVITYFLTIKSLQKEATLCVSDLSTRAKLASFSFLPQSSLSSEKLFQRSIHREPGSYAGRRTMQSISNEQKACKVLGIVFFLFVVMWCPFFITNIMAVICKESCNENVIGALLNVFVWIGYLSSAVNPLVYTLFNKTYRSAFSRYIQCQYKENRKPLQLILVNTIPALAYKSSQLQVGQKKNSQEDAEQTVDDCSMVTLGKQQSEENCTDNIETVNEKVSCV
T3 sequence (P61169 whole entry): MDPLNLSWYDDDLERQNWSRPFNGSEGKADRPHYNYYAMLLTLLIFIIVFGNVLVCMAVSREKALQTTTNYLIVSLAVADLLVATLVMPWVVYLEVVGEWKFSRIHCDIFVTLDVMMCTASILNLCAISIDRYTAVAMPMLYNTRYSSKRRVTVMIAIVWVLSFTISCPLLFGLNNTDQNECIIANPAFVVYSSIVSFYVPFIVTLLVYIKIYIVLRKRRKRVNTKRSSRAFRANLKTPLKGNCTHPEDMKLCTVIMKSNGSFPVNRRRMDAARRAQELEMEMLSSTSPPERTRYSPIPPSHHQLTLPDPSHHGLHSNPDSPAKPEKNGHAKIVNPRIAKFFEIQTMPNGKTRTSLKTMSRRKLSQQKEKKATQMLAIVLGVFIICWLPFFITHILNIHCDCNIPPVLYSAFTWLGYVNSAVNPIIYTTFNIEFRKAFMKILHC

On to `CO[C@]12C[C@@H](Cc3noc(-c4cncc(Br)c4)n3)CN(C)[C@@H]1Cc1cn(C)c3cccc2c13` [Example 2, 1,6-Dimethyl-8β-methyl-[5-(5-bromo-pyridin-3-yl)-1,2,4-oxadiazol-3-yl]-10α-methoxy-ergoline], for which the IC50 on 5-HT1A receptor (setting [1]) was 0.2 µM; on 5-HT2 receptor it was 2.4 µM; at D2 receptor, 3.64 µM.

As to `CO[C@]12C[C@@H](Cc3nc(-c4cncc(Br)c4)no3)CN(C)[C@@H]1Cc1cn(C)c3cccc2c13` [Example 4, 1,6-Dimethyl-8β-methyl-[3-(5-bromo-pyridin-3-yl)-1,2,4-oxadiazol-5-yl]-10α-methoxy-ergoline], the IC50 on 5-HT1A receptor (setting [1]) was determined as 0.3 µM; at 5-HT2 receptor, 3.4 µM; on D2 receptor, 2.93 µM. The “PKC translocation in hippocampal synaptosomes, expressed as per cent of PKC translocation in control conditions” value with PKC was 126 per cent.

In the case of `CO[C@]12C[C@@H](c3nnc(-c4cncc(Br)c4)o3)CN(C)[C@@H]1Cc1cn(C)c3cccc2c13` [Example 8, 1,6-Dimethyl-8β-[2-(5-bromo-pyridin-3-yl)-1,3,4-oxadiazol-5-yl]-10α-methoxy-ergoline], the IC50 was 0.009 µM on 5-HT1A receptor, 0.027 µM on 5-HT2 receptor, 1.95 µM on D2 receptor and 2.04 µM at D1 receptor.

Regarding `CO[C@]12C[C@@H](Cc3nnc(-c4cncc(Br)c4)o3)CN(C)[C@@H]1Cc1cn(C)c3cccc2c13` [Example 10, 1,6-Dimethyl-8β-methyl-[2-(5-bromo-pyridin-3-yl)-1,3,4-oxadiazol-5-yl]-10α-methoxy-ergoline], the IC50 at 5-HT1A receptor was found to be 0.011 µM; at 5-HT2 receptor, 0.89 µM; at D2 receptor it was 2.51 µM.
